Consider six compounds from patent US20190062371A1, “PEPTIDE COMPOSITIONS AND RELATED METHODS” (Allegro Pharmaceuticals, Inc., priority 2017, published 2019).

This assay has as its system ischemia-induced retinal neovascularization. The assay is described as follows: Mouse model of retinopathy of prematurity (ROP), ischemia-induced retinal neovascularization. The note with it: for Activity At Dose Tested: intravitreal 20 micrograms, P17; for Mean % Reduction of Retinal Neovascularization In ROP Model: intravitreal injection of 1.0 microliters containing 20 micrograms of Test Compound at P12, neovascular area at P17 (Taurine solutions 3.0 mg/100 μL). It counts as in vivo, C57Bl/6 mice. Here is the method: Each test compound was prepared in sterile water for injection, containing 0.08 mg/100 μL of sodium chloride and 0.005 mg/100 μL of trisodium citrate, the concentration of the peptide was at a concentration of […] and pH=2.7 and dispensed by sterile filtration into sterile vials. The Taurine test compound was obtained from Sigma Aldrich company, which was >99% pure, and prepared the same way as mentioned previously, having a concentration of 3.0 mg/100 μL. The R-G-Cys(acid) at 2.0 mg/100 μL+Taurine at 3.0 mg/100 μL were prepared the same way as mentioned above
To screen the test compounds for activity against ischemia-induced retinal neovascularization, the well-established model of retinopathy of prematurity (ROP) in mice was used. Litters of C57Bl/6 mice were placed in 75% oxygen at postnatal day (P) 7, returned to room air at day (P) 12. The Pups were randomly assigned to treatment groups of 4 to 10 animals per group. The pups were treated as follows: Treatment eyes were treated by intravitreal injection of 1.0 microliters of solution containing 20 micrograms of Test Compound.
On post-natal day 17, 5 days after intravitreal injection, the animals were sacrificed, the retinas were flat mounted and the area of neovascularization in each retina was determined by Fluorescein-dextran image analysis.
Applicant has identified the tripeptide R-G-Cysteic(Acid) as an integrin binding motif of the oligopeptide Glycinyl-Arginyl-Glycinyl-Cysteic(Acid)-Threonyl-Proline (ALG-1001 or Luminate®, Allegro Ophthalmics, LLC). The trifluoroacetate (TFA) and acetate salts of the R-G-Cysteic(Acid) tripeptide (Test Compound Nos. 1 and 2) were tested in both the ROP Mouse Model as described above as well as in a mouse model of choroidal neovascularization induced by laser photocoagulation (“CNV Mouse Model”), as generally as described in Lambert, V., et al., Laser-Induced Choroidal Neovascarization Model to Study Age Related Macular Degeneration in Mice, Nature Protocols, 8; 2197-2211 (2013). […] In some of the experiments, an additional “Positive Control” group was included.
The following Table 1 summarizes the neovascularization inhibiting effect of each Test Compound at the dose tested. In each instance, the data was obtained using the ROP Mouse Model, except for the two table entries specifically labeled “CNV”. Only those table entries labeled “CNV” show data obtained from the CNV Mouse Model. Bar graphs showing the test results summarized in Table 1 are also provided herewith as FIGS. 1 through 27.

On to `NCCS(=O)(=O)O` [Test Compound 25, Taurine, reference compound], for which the “Activity At Dose Tested” value is on record as “Slightly Active” and the “Mean % Reduction of Retinal Neovascularization In ROP Model” value worked out at 33%.
For “Cyclo-{R-G-Cys(acid)-F—N—Me—V} Acetate [Test Compound 12]”, in that order: “Active” and 57%.
The matching figures for “Cyclo-{R-G-D-D-F—NMe—V}•TFA [Test Compound 13]”: “Active” and 75%.
The matching figures for R-A-Cys (acid)•TFA [Test Compound 3]: “Active” and 60%.
Consider R-D-G•TFA [Test Compound 18], for which the “Activity At Dose Tested” value is given as “Active” and the “Mean % Reduction of Retinal Neovascularization In ROP Model” value is on record as 44%.
For “R-G-Cys(acid)-G-G-GD-G•TFA [Test Compound 7]”, in that order: “Active” and 62%.
